We go through one molecule from patent publication US20230321123A1, “INHIBITORS OF PSEUDOMONAS AERUGINOSA VIRULENCE FACTOR LasB” (Helmholtz-Zentrum Für Infektionsforschung GmbH, priority 2020, published 2023).

The target in data set [1] is T1, MMP-1 (Homo sapiens, UniProt P03956).
T1 sequence (P03956 100-469): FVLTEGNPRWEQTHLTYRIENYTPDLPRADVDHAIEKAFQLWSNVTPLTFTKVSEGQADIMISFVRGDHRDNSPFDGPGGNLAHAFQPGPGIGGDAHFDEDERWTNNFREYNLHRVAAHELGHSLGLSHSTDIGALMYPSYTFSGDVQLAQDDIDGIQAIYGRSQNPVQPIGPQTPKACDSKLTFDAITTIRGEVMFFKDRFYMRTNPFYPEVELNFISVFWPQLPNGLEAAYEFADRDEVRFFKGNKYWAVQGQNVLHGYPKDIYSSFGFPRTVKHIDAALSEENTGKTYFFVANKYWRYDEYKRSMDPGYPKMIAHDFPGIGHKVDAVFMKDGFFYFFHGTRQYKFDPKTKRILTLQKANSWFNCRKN
Put plainly: Selectivity against human off-targets: MMP-1. In kind it is biochemical. The note with it: read-out: Inhibition [%] MMP-1. From the text:
(§1) The inhibition of zinc-containing human enzymes is described frequently for LasB inhibitors and poses a serious difficulty in the development of selective compounds. Particularly, the inhibition of matrix metalloproteases (MMPs) should be avoided. To further investigate this issue, three derivatives (the compounds of examples 1, 5 and 8) have been tested for their selectivity against several human off-targets, including six MMPs, ADAM17 (TACE), HDAC-3 and HDAC-8 (Table 4). The selectivity of the compounds is particularly high for MMPs and HDACs, whereas the inhibition of ADAM17 was considerably stronger.

A short description of data set [2]: Cytotoxicity A549. In kind it is cell-based. The conditions noted are these: human; A549. The method, then: (§2) The compounds of examples 1 and 5 were not toxic against the cell lines HepG2, HEK293 and A549 (Table 5). Additionally, the inhibitory effect against P. aeruginosa PA14 was evaluated to exclude an antibacterial effect of the compounds of the present invention. This is important as it was the aim to target virulence and not viability of the bacteria. […]

Data set [3] concerns the target T2, HDAC-8 (Homo sapiens, UniProt Q9BY41).
T2 sequence (Q9BY41 1-377): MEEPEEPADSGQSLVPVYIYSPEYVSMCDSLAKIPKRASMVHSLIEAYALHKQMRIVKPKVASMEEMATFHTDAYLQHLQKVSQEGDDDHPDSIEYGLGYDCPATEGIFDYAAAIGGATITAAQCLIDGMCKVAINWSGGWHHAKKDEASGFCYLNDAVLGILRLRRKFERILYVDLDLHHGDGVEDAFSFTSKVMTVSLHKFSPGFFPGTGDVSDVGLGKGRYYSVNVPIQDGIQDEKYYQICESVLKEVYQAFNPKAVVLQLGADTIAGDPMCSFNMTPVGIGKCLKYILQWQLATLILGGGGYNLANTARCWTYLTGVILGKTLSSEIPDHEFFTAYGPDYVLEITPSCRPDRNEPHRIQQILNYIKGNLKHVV
Put plainly: Selectivity against human off-targets: HDAC-8. In kind it is biochemical. The note with it: read-out: IC50 HDAC-8.
Excerpt: as §1

Data set [4] deals with MMP-3 (Homo sapiens, UniProt P08254). Put plainly: Selectivity against human off-targets: MMP-3. In kind it is biochemical. The note with it: read-out: Inhibition [%] MMP-3.
Excerpt: as §1

Data set [5] has as its target CYP2C19 (Homo sapiens, UniProt P33261). Put plainly: CYP inhibition CYP2C19. In kind it is in vitro ADME. The text has this:
As the compound of example 2 has shown an impressive activity in the in vitro LasB inhibition assay, high selectivity over a broad spectrum of human enzymes and no signs of cytotoxicity in vitro, it has been subjected to a more advanced safety screening (Table 9).

A short description of data set [6]: Cytotoxicity HepG2. In kind it is cell-based. The conditions noted are these: human; HepG2. On the procedure:
as §2

The nature of data set [7]: Cytotoxicity HEK293. In kind it is cell-based. The note with it: human; HEK293. On the procedure:
as §2

Data set [8] concerns the target T3, MMP-7 (Homo sapiens, UniProt P09237).
T3 sequence (P09237 95-267): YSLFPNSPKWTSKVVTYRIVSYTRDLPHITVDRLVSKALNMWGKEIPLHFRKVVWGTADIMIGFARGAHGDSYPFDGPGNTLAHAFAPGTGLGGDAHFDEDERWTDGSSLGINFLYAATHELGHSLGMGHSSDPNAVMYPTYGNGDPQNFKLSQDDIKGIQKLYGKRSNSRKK
Put plainly: Selectivity against human off-targets: MMP-7. In kind it is biochemical. The conditions noted are these: read-out: Inhibition [%] MMP-7.
Excerpt: as §1

Data set [9] addresses MMP-14 (Homo sapiens, UniProt P50281). Put plainly: Selectivity against human off-targets: MMP-14. In kind it is biochemical. The note with it: read-out: Inhibition [%] MMP-14.
Excerpt: as §1

Data set [10] has as its target T4, MMP-2 (Homo sapiens, UniProt P08253).
T4 sequence (P08253 110-660): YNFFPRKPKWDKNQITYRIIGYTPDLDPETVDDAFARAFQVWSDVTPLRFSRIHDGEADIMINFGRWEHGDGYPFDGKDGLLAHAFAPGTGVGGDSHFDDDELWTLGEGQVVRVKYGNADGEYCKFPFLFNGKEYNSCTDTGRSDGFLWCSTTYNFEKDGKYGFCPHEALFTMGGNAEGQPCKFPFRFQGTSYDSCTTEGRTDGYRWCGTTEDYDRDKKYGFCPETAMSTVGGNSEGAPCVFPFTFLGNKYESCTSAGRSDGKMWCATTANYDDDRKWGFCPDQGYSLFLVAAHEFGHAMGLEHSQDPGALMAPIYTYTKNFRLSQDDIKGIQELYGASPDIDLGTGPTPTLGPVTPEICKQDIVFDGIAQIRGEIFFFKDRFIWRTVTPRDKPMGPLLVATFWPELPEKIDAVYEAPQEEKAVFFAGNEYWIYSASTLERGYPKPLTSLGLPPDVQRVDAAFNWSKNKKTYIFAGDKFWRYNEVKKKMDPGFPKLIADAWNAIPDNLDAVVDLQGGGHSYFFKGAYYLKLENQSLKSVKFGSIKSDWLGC
Put plainly: Selectivity against human off-targets: MMP-2. In kind it is biochemical. The conditions noted are these: read-out: Inhibition [%] MMP-2.
Excerpt: as §1

CYP2C19, sequence (P33261 whole entry): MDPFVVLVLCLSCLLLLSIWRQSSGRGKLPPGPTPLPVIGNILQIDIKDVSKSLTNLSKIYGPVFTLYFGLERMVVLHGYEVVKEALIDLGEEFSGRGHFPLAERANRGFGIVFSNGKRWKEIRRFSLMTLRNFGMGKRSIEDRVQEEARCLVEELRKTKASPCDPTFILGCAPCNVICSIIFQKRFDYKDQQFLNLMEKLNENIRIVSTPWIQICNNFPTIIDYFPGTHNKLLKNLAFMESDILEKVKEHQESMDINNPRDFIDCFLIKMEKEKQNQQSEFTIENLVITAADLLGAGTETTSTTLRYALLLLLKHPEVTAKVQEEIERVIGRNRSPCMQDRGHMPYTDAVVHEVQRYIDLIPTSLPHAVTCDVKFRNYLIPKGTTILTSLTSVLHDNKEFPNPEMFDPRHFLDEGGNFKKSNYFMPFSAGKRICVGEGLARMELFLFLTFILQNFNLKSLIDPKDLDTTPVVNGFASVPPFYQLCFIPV
MMP-3, sequence (P08254 100-477): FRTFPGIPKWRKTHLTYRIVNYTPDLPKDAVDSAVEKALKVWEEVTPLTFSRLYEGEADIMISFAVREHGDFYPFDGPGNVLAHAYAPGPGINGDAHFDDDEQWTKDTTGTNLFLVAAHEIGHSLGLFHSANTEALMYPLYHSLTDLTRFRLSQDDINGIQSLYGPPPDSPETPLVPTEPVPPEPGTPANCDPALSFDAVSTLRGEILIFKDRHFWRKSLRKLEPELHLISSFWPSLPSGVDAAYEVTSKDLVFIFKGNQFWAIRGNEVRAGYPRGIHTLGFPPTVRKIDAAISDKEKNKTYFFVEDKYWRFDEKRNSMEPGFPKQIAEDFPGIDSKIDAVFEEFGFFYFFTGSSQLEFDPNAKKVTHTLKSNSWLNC

Turning to `Cc1ccc(NC(=O)C(S)CC(C)C)cc1` (centres unmarked) [Example 2, 2-Mercapto-4-methyl-N-(p-tolyl)pentanamide], the melting point (usually the temperature of the solid-liquid transition) was found to be 90 °C. Moreover, the inhibition – broadly, the share of the control response that was lost under treatment – at 100 µM in [1] was < 10%. Further, the IC50 – broadly, the concentration at which inhibition is half-maximal – in [2] was > 100 µM. In data set [3], the IC50 is > 100 µM. For the same molecule, the inhibition at 100 µM in data set [4] was < 10%. The IC50 in data set [5] came out at 1 µM. In data set [6], the IC50 is > 100 µM. For the same molecule, in data set [7], the IC50 was > 50 µM. For the same molecule, the inhibition at 100 µM in data set [8] is < 10%. For the same molecule, the inhibition at 100 µM in [9] is < 10%. Also, in [10], the inhibition at 100 µM is < 10%.
